Consider 11 compounds from publication PMC7811140 (iScience, 2020).

Entries after “also recorded” stand apart in the source; their conditions may differ.

Test [1] has as its target T1, KDM4B (Homo sapiens, UniProt O94953).
T1 sequence (O94953 1-348): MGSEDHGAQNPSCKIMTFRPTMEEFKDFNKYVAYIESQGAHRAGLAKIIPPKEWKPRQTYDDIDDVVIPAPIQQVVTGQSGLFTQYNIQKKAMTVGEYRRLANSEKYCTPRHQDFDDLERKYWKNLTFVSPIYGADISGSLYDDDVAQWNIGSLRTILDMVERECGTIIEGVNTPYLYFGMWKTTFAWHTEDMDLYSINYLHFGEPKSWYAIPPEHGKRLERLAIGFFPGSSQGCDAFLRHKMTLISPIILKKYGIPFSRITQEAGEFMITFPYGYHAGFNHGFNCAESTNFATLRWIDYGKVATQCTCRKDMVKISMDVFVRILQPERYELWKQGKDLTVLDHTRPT
As to the kind of experiment: biochemical. Particulars: for KDM4B inhibitory activity (in words): Figure S2; for inhibition at 15 µM: read-out: %Inhibition of KDM4B; for %Inhibition of KDM4B: at 15 μM, screening.

Test [2] concerns aRMS xenograft. Particulars: ref Kang et al., 2012; Lock et al., 2013; cited from earlier work.
For test [3], the system named is eRMS xenograft. Particulars: ref Kang et al., 2012; Lock et al., 2013; cited from earlier work.
Test [4] relates to PAX3-FOXO1. As to the kind of experiment: Western blot of PAX3-FOXO1 in Rh30 cells. In kind it is cell-based. The settings on record: 24 hr.
Test [5] concerns Rh30 cells. The test can be described thus: Crystal violet staining proliferation assay. It is filed as cell-based. The settings on record: 5 days, at the concentrations that hit the targets.
In test [6] the target is T2, KDM4B (Homo sapiens, UniProt O94953).
T2 sequence (O94953 1-1096): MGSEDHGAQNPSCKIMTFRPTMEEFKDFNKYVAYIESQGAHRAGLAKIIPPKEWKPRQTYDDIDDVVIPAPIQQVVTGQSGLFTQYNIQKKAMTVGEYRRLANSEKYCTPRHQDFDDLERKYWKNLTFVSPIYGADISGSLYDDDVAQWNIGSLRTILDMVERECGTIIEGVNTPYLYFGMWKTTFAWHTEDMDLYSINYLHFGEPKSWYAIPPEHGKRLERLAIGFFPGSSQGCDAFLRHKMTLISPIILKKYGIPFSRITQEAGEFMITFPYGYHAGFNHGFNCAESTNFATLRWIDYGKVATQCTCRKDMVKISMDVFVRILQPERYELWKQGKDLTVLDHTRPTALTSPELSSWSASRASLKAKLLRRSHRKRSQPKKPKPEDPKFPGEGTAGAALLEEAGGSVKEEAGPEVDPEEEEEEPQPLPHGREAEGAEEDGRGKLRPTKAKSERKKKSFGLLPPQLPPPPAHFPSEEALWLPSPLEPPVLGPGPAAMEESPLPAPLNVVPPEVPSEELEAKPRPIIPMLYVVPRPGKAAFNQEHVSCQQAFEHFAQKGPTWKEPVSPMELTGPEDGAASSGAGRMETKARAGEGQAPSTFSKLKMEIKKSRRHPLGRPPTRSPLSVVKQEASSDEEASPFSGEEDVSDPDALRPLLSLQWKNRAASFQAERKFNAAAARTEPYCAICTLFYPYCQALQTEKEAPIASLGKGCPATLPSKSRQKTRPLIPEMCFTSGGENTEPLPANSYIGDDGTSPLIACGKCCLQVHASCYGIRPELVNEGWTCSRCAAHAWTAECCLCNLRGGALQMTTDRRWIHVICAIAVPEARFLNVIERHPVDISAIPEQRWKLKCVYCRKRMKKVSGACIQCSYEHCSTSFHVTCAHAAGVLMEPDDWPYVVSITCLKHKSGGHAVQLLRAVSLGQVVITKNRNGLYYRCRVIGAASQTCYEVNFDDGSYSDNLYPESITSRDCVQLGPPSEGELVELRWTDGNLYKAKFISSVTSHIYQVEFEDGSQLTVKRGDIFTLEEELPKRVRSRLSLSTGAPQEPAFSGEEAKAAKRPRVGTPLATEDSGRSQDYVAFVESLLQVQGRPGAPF
The test can be described thus: Western blot of histone marks in 293T cells expressing KDM4B. In kind it is cell-based. Particulars: treated 24 hours. For orientation: In western blotting, separated proteins are transferred to a membrane and probed.

In test [7] the target is T3, KDM4C (Homo sapiens, UniProt Q9H3R0).
T3 sequence (Q9H3R0 1-1056): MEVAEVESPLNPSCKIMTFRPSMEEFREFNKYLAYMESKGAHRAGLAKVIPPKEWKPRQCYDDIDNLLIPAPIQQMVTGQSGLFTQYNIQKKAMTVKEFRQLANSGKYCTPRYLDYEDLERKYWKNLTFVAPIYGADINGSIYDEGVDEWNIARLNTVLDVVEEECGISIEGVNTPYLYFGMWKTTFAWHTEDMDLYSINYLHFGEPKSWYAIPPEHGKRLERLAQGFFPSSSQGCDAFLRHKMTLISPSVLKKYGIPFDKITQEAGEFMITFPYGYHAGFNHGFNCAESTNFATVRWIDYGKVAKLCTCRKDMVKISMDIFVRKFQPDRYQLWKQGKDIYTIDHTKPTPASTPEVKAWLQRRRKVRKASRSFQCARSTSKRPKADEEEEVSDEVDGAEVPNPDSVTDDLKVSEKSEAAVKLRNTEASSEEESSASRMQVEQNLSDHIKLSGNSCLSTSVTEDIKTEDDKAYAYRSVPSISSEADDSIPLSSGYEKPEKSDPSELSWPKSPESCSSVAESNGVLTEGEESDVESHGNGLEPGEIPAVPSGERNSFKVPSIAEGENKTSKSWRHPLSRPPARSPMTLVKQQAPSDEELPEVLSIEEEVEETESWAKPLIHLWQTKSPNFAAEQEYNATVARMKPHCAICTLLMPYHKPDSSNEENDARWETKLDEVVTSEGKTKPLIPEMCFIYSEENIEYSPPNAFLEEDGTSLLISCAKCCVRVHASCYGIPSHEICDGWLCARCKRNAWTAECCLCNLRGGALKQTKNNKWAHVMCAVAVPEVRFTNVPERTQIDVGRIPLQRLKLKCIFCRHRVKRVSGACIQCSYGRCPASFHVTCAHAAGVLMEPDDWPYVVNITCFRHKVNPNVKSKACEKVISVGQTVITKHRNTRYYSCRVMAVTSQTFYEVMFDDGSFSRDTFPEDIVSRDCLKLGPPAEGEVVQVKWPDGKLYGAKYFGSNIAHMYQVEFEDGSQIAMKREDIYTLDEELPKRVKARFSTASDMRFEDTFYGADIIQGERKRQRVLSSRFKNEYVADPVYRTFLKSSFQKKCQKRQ
As to the kind of experiment: ALPHA Screen demethylation assay. Particulars: IC50 (μM) KDM4C. In kind it is biochemical.

For test [8], the target named is KDM5A (Homo sapiens, UniProt P29375). The test can be described thus: ALPHA Screen demethylation assay. It is filed as biochemical. The settings on record: IC50 (μM) KDM5A.
KDM5A, sequence (P29375 whole entry): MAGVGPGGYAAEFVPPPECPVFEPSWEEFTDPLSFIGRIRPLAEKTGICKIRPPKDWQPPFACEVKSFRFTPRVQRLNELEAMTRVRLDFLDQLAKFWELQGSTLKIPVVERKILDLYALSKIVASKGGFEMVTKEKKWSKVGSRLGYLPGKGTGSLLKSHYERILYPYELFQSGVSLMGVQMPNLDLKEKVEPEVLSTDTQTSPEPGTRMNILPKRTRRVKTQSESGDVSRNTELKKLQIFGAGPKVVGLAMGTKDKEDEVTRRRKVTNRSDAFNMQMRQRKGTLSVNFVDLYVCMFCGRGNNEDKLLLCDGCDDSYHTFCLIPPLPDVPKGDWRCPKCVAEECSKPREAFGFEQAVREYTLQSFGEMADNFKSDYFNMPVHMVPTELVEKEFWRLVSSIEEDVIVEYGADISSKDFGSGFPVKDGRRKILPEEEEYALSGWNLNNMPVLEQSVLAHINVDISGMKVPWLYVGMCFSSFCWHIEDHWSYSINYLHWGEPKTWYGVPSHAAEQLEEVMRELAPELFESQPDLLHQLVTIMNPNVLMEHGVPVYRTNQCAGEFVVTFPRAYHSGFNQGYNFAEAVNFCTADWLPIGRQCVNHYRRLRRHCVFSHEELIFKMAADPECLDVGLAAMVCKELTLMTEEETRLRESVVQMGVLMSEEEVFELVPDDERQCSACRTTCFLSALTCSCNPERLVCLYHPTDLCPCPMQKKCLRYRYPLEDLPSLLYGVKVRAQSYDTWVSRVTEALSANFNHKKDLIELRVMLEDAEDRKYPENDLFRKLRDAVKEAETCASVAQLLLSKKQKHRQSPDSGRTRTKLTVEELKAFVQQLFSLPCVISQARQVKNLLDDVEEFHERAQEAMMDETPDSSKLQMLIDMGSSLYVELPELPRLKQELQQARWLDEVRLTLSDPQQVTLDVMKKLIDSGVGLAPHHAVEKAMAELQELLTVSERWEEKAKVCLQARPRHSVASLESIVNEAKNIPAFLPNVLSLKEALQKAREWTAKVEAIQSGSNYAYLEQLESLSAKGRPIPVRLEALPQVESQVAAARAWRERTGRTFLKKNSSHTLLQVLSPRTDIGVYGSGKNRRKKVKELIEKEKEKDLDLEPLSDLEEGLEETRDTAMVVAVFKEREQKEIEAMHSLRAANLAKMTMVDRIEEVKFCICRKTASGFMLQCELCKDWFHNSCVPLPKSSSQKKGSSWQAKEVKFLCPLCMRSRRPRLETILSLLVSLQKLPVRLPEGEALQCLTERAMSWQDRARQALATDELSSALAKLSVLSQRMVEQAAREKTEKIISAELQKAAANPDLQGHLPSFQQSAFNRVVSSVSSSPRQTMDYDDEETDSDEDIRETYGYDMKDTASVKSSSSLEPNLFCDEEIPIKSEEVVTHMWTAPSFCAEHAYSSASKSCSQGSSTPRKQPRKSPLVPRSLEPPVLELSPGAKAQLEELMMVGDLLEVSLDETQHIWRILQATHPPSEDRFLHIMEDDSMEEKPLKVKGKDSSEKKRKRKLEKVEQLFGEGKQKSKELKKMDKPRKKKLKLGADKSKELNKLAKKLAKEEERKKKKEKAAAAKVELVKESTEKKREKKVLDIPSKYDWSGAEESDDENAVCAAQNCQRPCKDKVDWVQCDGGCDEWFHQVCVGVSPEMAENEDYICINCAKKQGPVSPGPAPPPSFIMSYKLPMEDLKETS
Test [9] relates to H3K9me3 and H3K36me3 peaks. As to the kind of experiment: ChIP-seq of H3K9me3 and H3K36me3 in Rh30 cells. The settings on record: 1μM, 24 hr. It is filed as cell-based, human.
Test [10] concerns KDM4 substrates H3K9me3 and H3K36me3. The test can be described thus: Western blot of H3K9me3 and H3K36me3 in Rh30 cells. In kind it is cell-based. The settings on record: 24 hr.
The target in test [11] is T2, KDM4B. The test can be described thus: Western blot of histone methyl marks in U2OS cells expressing KDM4B. Particulars: 1uM, not on H3K4me3.

`CC(C)c1cc(C(=O)N2Cc3ccc(CN4CCN(C)CC4)cc3C2)c(O)cc1O` [AT13387]: in test [1], the “KDM4B inhibitory activity (in words)” value is reported as “minimal effect on KDM4B activity; also recorded: did not inhibit KDM4B activity” and the inhibition at 15 µM was less than 15%. In addition, the aRMS xenograft growth result in test [2] was “no effect”. In addition, in test [3], the eRMS xenograft growth entry is reported as “no effect on either aRMS or eRMS xenograft growth”. Moreover, in [4], the “PAX3-FOXO1 expression (protein)” value is on record as “reduced the expression of PAX3-FOXO1”.
Regarding `CCOC(=O)CCNc1cc(N2CCc3ccccc3CC2)nc(-c2ccccn2)n1` [GSK-J4], the anti-proliferative effect result in test [5] is listed as “no anti-proliferative effect”.
On to `CC(C)c1cc(-c2n[nH]c(=O)n2-c2ccc3c(ccn3C)c2)c(O)cc1O` [Ganetespib], for which, in [1], the “KDM4B inhibitory activity (in words)” value was “did not inhibit KDM4B activity” and the inhibition at 15 µM was less than 15%. Further, in test [2], the aRMS xenograft growth result is listed as “no effect”. Besides, the eRMS xenograft growth result in [3] is given as “no effect on either aRMS or eRMS xenograft growth”.
For the compound `CCOC(=O)c1ccnc(CNCC(=O)N(CC)CCN(C)C)c1` [KDM5-C70], the anti-proliferative effect entry in test [5] is “no anti-proliferative effect”.
For the compound `CCc1c(O)cc(O)c(C(=O)c2ccc(OCCN3CCOCC3)c(OC)c2)c1CC(=O)N(CCOC)CCOC.Cl` [KW2478], in test [1], the “%Inhibition of KDM4B” value is less than 15%.
Take `CCNC(=O)c1noc(-c2cc(C(C)C)c(O)cc2O)c1-c1ccc(CN2CCOCC2)cc1` [NVP-AUY922]: the inhibition at 15 µM in test [1] was less than 15%.
Turning to `CC1(C)CC(=O)c2c(C(F)(F)F)nn(-c3ccc(C(N)=O)c(N[C@H]4CC[C@H](OC(=O)CN)CC4)c3)c2C1` [SNX-5422], in test [1], the inhibition at 15 µM is less than 15%.
Still for that read-out and setting: under `CN(NC(=O)CC(=O)NN(C)C(=S)c1ccccc1)C(=S)c1ccccc1` [STA-4783] stands less than 15%.
`CC[C@@H](C)Nc1cc(C(=O)N[C@H]2C[C@H]3CC[C@@H](C2)N3c2ccc(C(=O)C3CC3)cn2)c(C)cc1C(N)=O` [XL888]: the “%Inhibition of KDM4B” value in test [1] is recorded as less than 15%.
Regarding `Cc1cc(C2CCCCC2)n(O)c(=O)c1` [ciclopirox], the “KDM4B activity in demethylating H3K9me3” value in test [6] is given as “greatly inhibited KDM4B activity”.
With `COC1=C2C[C@@H](C)C[C@H](OC)[C@H](O)[C@@H](C)/C=C(\C)[C@H](OC(N)=O)[C@@H](OC)/C=C\C=C(/C)C(=O)NC(=CC1=O)C2=O` [geldanamycin], the IC50 in test [7] and in test [8] was less than 1 µM in each case. Besides, the H3K36me3 peaks decreased in test [9] came to 213 peaks. Further, the H3K36me3 peaks increased in test [9] is on record as 1430 peaks. For the same compound, in test [9] (p < 0.05, logFC = 0.5), the “peaks of H3K9me3 induced” value is on record as “Four thousand four hundred six”. The “KDM4B activity in demethylating H3K9me3” value in test [6] was “greatly inhibited KDM4B activity”. Besides, the “H3K9me3 and H3K36me3 levels” value in test [10] is “induced an increase of H3K9me3 and H3K36me3”. Also, the “PAX3-FOXO1 expression (protein)” value in test [4] is listed as “reduced”. For the same compound, the “KDM4B catalytic activity on its H3K9me3 and H3K36me3 substrates” value in test [11] was “blocked KDM4B catalytic activity”.

In general, inhibition refers to the change of the read-out against control, counted positive when it falls. A word on the IC50: it is the concentration that inhibits the measured activity by half. Read a high IC50 as a need for much substance.
